Assay results from US20240325330A1, “NEW METHOD TO TREAT ACIDOSIS RELATED DISEASES WITH ACETOACETATE” (INSTITUT NATIONAL DE LA SANTÉ ET DE LA RECHERCHE MÉDICALE, priority 2021, published 2024).

Tests used:
[1] = system: Mφ (human monocytes cultured with GM-CSF); assay: Toxicity of lactic acid for macrophages; format: cell-based; details: pH=6.5; data not shown
Experimental: (§1) Peripheral blood mononuclear cells (PBMC) were obtained from healthy human volunteers (Blood collection center, Angers, France; agreement ANG-2017-01) by standard density-gradient centrifugation on lymphocyte separation medium (Eurobio, Courtaboeuf, France). CD14+ monocytes were then isolated by positive magnetic cell-sorting (Miltenyi Biotec, Bergisch Gladbach, Germany). Monocytes (1×10^6 cells/mL) were cultured in complete medium (CM) consisting of RPMI 1640 (Lonza, Verviers, Belgium) supplemented with 10% fetal calf serum (FCS) (Eurobio), 2 mM L-glutamine, 1 mM sodium pyruvate, 0.1 mM non-essential amino acids, 10 mM HEPES, 100 U/mL penicillin and 100 μg/mL streptomycin (all from Lonza) in the presence of 50 ng/mL GM-CSF (R&D Systems, Minneapolis, MN).
(§2) Experiments were performed in the presence of 10 mM lactic acid (Sigma-Aldrich, St Louis, MO) resulting in a pHe of 6.5 to generate LA-Mφ (lactic acidosis conditioning), 12.35 mM HCl to reach a final pHe of 6.5 and to generate HCl-Mφ(acidosis conditioning), 10 mM sodium lactate (Sigma-Aldrich) to generate lactate-Mφ (lactosis conditioning, pH 7.3), in the absence or presence of 5 mM lithium acetoacetate (AcAc) (Sigma-Aldrich, St Louis, MO).

[2] = system: day 3 LA-Mφ (human macrophages under lactic acidosis); assay: Survival of LA-Mφ with autophagy inhibitors; format: cell-based; details: added to day 3 LA-Mφ; data not shown
Experimental: as §1, §2

SMILES	maximum non-toxic concentration for Mφ [1] [mM]	survival of LA-Mφ [2]
CC(O)C(=O)O (stereo not drawn) [LA, lactic acid]	10	–
CO/C1=C\C(C)=C\[C@@H](C)[C@@H](O)[C@@H](C)C/C(C)=C/C=C/[C@H](OC)[C@@H]([C@@H](C)[C@@H](O)[C@H](C)[C@@]2(O)C[C@@H](O)[C@H](C)[C@@H](C(C)C)O2)OC1=O [BafA1, bafilomycin A1]	–	significantly decreased their survival
CC[C@@H](C(=O)[C@@H](C)[C@@H](O)[C@H](C)[C@@H]1O[C@@H]([C@@H](CC)C(=O)O)CC[C@@H]1C)[C@H]1O[C@]2(C=C[C@@H](O)[C@]3(CC[C@@](C)([C@H]4CC[C@](O)(CC)[C@H](C)O4)O3)O2)[C@H](C)C[C@@H]1C [salinomycin]	–	significantly decreased their survival
